Twelve molecules from ChEMBL document CHEMBL3351551, “Neuraminidase inhibitory activities of quaternary isoquinoline alkaloids from Corydalis turtschaninovii rhizome” (Bioorg Med Chem, 2014) can be followed below.

Structures are written as SMILES. pIC50, pKi: −log10 of the molar value. ≈ marks a conversion by molar mass, not a printed value.

The target of one assay is Neuraminidase (Influenza A virus (strain A/USSR/90/1977 H1N1), UniProt P03469). In words: Inhibition of recombinant Influenza A virus H1N1 neuraminidase using 4-methylumbelliferyl-alpha-D-Nacetylneuraminic acid sodium salt hydrate as substrate by fluorometry.
Chain of Neuraminidase (P03469 whole entry): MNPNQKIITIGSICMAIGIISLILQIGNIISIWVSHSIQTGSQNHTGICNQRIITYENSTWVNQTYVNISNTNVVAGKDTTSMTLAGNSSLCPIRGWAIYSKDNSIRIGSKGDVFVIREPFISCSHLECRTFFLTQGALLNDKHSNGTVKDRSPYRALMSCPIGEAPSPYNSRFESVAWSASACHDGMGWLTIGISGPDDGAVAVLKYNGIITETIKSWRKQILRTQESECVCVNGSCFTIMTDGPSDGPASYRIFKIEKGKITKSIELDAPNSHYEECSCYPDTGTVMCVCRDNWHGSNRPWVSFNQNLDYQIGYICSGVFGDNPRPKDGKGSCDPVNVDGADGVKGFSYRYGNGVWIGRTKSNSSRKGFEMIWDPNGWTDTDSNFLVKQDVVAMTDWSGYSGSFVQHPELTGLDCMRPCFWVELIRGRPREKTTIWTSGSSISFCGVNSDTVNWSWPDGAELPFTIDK
A short description of assay [1]: Inhibition of Clostridium perfringens neuraminidase 4-methylumbelliferyl-alpha-D-Nacetylneuraminic acid sodium salt hydrate as substrate by fluorometry.
The test system of assay [2] is Clostridium perfringens. Description: Antibacterial activity against Clostridium perfringens in tryptic soy broth after 24 hrs. The class given is functional.
A short description of assay [3]: Inhibition of Clostridium perfringens neuraminidase by Dixon plot.
Assay [4] concerns Clostridium perfringens. Description: Inhibition of Clostridium perfringens neuraminidase 4-methylumbelliferyl-alpha-D-Nacetylneuraminic acid sodium salt hydrate as substrate at 100 uM by fluorometry.

As a reminder, the pIC50 is −log10 of the IC50, conventionally taken in molar units. In the case of `c1c2c(cc3c1OCO3)-c1cc3ccc4c(c3c[n+]1CC2)OCO4` [COPTISINE], the pIC50 (at Neuraminidase; in assay [1]) was 4.60 each time.
As usually defined, the MIC is the smallest concentration in the dilution series that meets the test's criterion for growth inhibition. Usually pKi stands for −log10 of the Ki, conventionally taken in molar units. Lower therefore signals a large Ki. In the case of `COc1ccc2cc3[n+](cc2c1OC)CCc1cc2c(cc1-3)OCO2` [BERBERINE], in the assay with Clostridium perfringens [2], the MIC was determined as 52.2 µM. Also, the pIC50 at Neuraminidase is 4.41; in assay [1] it was 4.87. The molecule further had a pKi in assay [3] of 4.92.
Usually inhibition stands for the percentage by which the read-out fell short of the control. As for `COc1cc2c(cc1OC)[C@H]1[C@@H](C)c3ccc(OC)c(OC)c3CN1CC2`, the inhibition in the assay with Clostridium perfringens [4] was determined as 12.7%.
As to `COc1cc2c(cc1OC)-c1c(C)c3cc(OC)c(OC)cc3c[n+]1CC2`, in assay [1], the pIC50 was 4.49.
`COc1cc2c(cc1OC)-c1c(OC)c(OC)cc3c1[C@H](C2)N(C)CC3` [GLAUCINE]: the pIC50 in assay [1] is 4.01.
On to `COc1cc2c(cc1OC)-c1cc3ccc(OC)c(OC)c3c[n+]1CC2` [PALMITINE], for which the lowest concentration to inhibit growth in the assay with Clostridium perfringens [2] (MIC) was 44.7 µM. Moreover, the pIC50 at Neuraminidase is 4.48; in assay [1], 4.89. The molecule also had a pKi in assay [3] of 4.77.
As for `c1cc2c(c3c1CC1c4cc5c(cc4CCN1C3)OCO5)OCO2` (configuration not stated), in the assay on Clostridium perfringens [4], the inhibition was found to be 4.7%.
In the case of `CC1(C)S[C@@H]2[C@H](NC(=O)[C@H](N)c3ccccc3)C(=O)N2[C@H]1C(=O)O` [AMPICILLIN], the MIC against Clostridium perfringens [2] was 0.3 µM (≈ 0.105 µg/mL).
For the molecule `COc1cc2c(cc1O)CC[n+]1cc3c(OC)c(OC)ccc3c(C)c1-2`, the pIC50 was 4.09 at Neuraminidase and 4.38 in assay [1].
For `COc1cc2c(cc1O)CC[n+]1cc3c(OC)c(OC)ccc3cc1-2` [JATRORRHIZINE] the same measures were 4.18 and 4.43.
For `c1c2c(cc3c1OCO3)-c1cc3cc4c(cc3c[n+]1CC2)OCO4`, the pIC50 was 3.90 at Neuraminidase and 4.19 in assay [1].
Take `COc1cc(/C=C/C(=O)CC(=O)/C=C/c2ccc(O)c(OC)c2)ccc1O` [CURCUMIN]: the pIC50 in assay [1] was 5.22.
